Results on 34 molecules are retold here after ChEMBL document CHEMBL5579832, “Design, synthesis, and biological evaluation of pyrido[2,3-d]pyrimidin-7(8H)-one derivatives as potent USP1 inhibitors” (Eur J Med Chem, 2024).

Each structure is given as a SMILES string. Activity calls are given as the source filed them. The rule behind the calls is not given here.

What is called IC50 is the concentration at which inhibition is half-maximal. Low values mean higher potency, high ones lower potency. A word on the inhibition: it is the change of the read-out against control, counted positive when it falls.

The target in one assay is Ubiquitin carboxyl-terminal hydrolase 1/WD repeat-containing protein 48 (Homo sapiens, UniProt O94782). As to the kind of experiment: Inhibition of USP1-UAF1 complex (unknown origin) using Ub-7-amido-4-methylcoumarin as substrate incubated for 2 hrs by fluorescence based analysis. Type of assay: protein-complex assay.
Sequence of Ubiquitin carboxyl-terminal hydrolase 1/WD repeat-containing protein 48 (O94782 whole entry): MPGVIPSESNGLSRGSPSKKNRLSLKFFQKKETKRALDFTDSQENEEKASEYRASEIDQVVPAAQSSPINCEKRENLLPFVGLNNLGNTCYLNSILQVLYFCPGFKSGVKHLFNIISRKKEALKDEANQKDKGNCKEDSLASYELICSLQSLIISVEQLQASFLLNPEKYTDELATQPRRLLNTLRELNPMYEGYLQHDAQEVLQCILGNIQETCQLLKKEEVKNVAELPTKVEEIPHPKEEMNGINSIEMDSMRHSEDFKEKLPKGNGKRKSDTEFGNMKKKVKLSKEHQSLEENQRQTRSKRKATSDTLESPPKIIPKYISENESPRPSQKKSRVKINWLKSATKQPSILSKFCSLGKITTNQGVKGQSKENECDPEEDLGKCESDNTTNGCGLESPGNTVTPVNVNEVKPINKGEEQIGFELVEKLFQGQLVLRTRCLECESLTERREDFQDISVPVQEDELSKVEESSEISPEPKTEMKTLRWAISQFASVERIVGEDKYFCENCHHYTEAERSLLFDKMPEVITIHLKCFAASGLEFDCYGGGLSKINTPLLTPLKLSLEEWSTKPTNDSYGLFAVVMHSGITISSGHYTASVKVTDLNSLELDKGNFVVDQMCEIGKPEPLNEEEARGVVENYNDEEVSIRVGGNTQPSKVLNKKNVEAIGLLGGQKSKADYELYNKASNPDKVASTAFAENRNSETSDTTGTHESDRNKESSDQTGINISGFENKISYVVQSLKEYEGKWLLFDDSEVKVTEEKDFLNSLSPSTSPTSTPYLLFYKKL
Sequence of Ubiquitin carboxyl-terminal hydrolase 1/WD repeat-containing protein 48 (Q8TAF3 whole entry, further chain): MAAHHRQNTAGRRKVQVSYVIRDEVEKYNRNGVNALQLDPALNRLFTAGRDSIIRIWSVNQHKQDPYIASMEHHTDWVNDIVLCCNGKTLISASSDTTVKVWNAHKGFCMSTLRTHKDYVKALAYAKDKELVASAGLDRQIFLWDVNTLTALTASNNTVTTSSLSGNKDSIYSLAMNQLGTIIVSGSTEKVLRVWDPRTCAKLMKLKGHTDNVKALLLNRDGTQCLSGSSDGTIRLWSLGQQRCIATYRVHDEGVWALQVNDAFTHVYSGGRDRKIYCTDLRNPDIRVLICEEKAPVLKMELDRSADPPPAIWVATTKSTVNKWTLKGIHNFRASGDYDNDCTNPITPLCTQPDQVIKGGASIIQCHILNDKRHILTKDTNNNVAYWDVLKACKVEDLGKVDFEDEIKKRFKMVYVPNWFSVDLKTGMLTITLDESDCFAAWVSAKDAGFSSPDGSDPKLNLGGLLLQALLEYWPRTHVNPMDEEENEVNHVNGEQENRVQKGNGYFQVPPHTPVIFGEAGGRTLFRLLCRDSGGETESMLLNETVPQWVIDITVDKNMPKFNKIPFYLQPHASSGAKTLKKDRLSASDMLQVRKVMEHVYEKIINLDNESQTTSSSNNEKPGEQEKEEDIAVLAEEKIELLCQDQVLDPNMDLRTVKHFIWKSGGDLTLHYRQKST
Conditions: not given
The molecule `CC(C)n1cc(C(F)(F)F)nc1-c1ccc(Cn2c(=O)ccc3cnc(-c4c(Cl)cccc4Cl)nc32)cc1` came in with an IC50 above 10000 nM.

Molecule `CC(C)n1cc(C(F)(F)F)nc1-c1ccc(Cn2c(=O)ccc3cnc(-c4ccccc4C(F)(F)F)nc32)cc1` returned an IC50 of 195 nM.

`CC(C)n1cc(C(F)(F)F)nc1-c1ccc(Cn2c(=O)ccc3cnc(-c4ccnn4C)nc32)cc1` yielded a concentration for half-maximal inhibition (IC50) above 10000 nM.

As to `COc1ncnc(C2CC2)c1-c1ncc2ccc(=O)n(Cc3ccc(-c4cccc(C(F)(F)F)n4)cc3)c2n1`, the IC50 stood at 59.9 nM.

Consider `COc1ncnc(C2CC2)c1-c1ncc2ccc(=O)n(Cc3ccc(-c4ccc(C(F)(F)F)cn4)cc3)c2n1`, for which the IC50 was above 10000 nM.

Regarding `CC(C)n1cc(C(F)(F)F)nc1-c1ccc(Cn2c(=O)ccc3cnc(-c4cccc5cnn(C)c45)nc32)cc1`, the IC50 is above 10000 nM.

The molecule `COc1ncnc(C2CC2)c1-c1ncc2ccc(=O)n(C(C)c3ccc(-c4nc(C(F)(F)F)cn4C(C)C)cc3)c2n1` (centres undefined) showed an IC50 of 83.9 nM.

In the case of `COc1cccc(F)c1-c1ncc2ccc(=O)n(Cc3ccc(-c4nc(C(F)(F)F)cn4C(C)C)cc3)c2n1`, 23.3 nM corresponded to half-maximal inhibition (IC50).

`COc1ncnc(C2CC2)c1-c1ncc2ccc(=O)n(Cc3c(F)cc(-c4nc(C(F)(F)F)cn4C(C)C)cc3F)c2n1`: it took 246 nM to reach half-maximal inhibition (IC50).

The molecule `COc1cc(-c2nc(C(F)(F)F)cn2C(C)C)ccc1Cn1c(=O)ccc2cnc(-c3c(OC)ncnc3C3CC3)nc21` gave an IC50 of 319 nM.

For the molecule `Cc1cnn(C(C)C)c1-c1ncc2ccc(=O)n(Cc3ccc(-c4nc(C(F)(F)F)cn4C(C)C)cc3)c2n1`, the IC50 was above 10000 nM.

For `COc1ncnc(C2CC2)c1-c1ncc2ccc(=O)n(Cc3ccc(-c4nc(C(F)(F)F)cn4C(C)C)c(F)c3)c2n1`, the IC50 was 22.8 nM.

In turn, `Cc1cnn(C)c1-c1ncc2ccc(=O)n(Cc3ccc(-c4nc(C(F)(F)F)cn4C(C)C)cc3)c2n1` had an IC50 above 10000 nM.

In the case of `CC(C)c1ccccc1-c1ncc2ccc(=O)n(Cc3ccc(-c4nc(C(F)(F)F)cn4C(C)C)cc3)c2n1`, the IC50 was 33.9 nM.

For the molecule `CC(C)n1cc(C(F)(F)F)nc1-c1ccc(Cn2c(=O)ccc3cnc(-c4ccn(C)n4)nc32)cc1`, the IC50 was above 10000 nM.

Molecule `COc1cccc(OC)c1-c1ncc2ccc(=O)n(Cc3ccc(-c4nc(C(F)(F)F)cn4C(C)C)cc3)c2n1` registered an IC50 of 18.8 nM.

The molecule `COc1ccccc1-c1ncc2ccc(=O)n(Cc3ccc(-c4nc(C(F)(F)F)cn4C(C)C)cc3)c2n1` returned an IC50 above 10000 nM.

Take `Cc1ccccc1-c1ncc2ccc(=O)n(Cc3ccc(-c4nc(C(F)(F)F)cn4C(C)C)cc3)c2n1`: the IC50 stood at 511 nM.

In the case of `COc1ncnc(C2CC2)c1-c1ncc2ccc(=O)n(Cc3ccc(-c4nc(C(F)(F)F)cn4CC4CC4)cc3)c2n1`, the IC50 was 11.2 nM. This IC50 is about 46-fold lower than that of the molecule before.

Consider `CC(C)n1cc(C(F)(F)F)nc1-c1ccc(Cn2c(=O)ccc3cnc(-c4c(Cl)cnn4C(C)C)nc32)cc1`, for which the IC50 was above 10000 nM.

As to `CC(C)n1cc(C(F)(F)F)nc1-c1ccc(Cn2c(=O)ccc3cnc(-c4ccccc4Cl)nc32)cc1`, 729 nM corresponded to half-maximal inhibition (IC50).

In turn, `CC(C)n1cc(C(F)(F)F)nc1-c1ccc(Cn2c(=O)ccc3cnc(-c4ccccc4OC(F)(F)F)nc32)cc1` displayed an IC50 of 39.8 nM.

As for `CC(C)n1cc(C(F)(F)F)nc1-c1ccc(Cn2c(=O)ccc3cnc(-c4cccc5ncsc45)nc32)cc1`, the IC50 was above 10000 nM.

Turning to `CC(C)n1cc(C(F)(F)F)nc1-c1ccc(Cn2c(=O)ccc3cnc(-c4ccccc4F)nc32)cc1`, the IC50 turned out to be 835 nM. This counts as sub-micromolar.

The molecule `CC(C)n1cc(C(F)(F)F)nc1-c1ccc(Cn2c(=O)ccc3cnc(-c4c(F)cccc4Cl)nc32)cc1` gave a concentration for half-maximal inhibition (IC50) above 10000 nM.

The target of a further assay is T1, Ubiquitin carboxyl-terminal hydrolase 1/WD repeat-containing protein 48 (Homo sapiens) (UniProt O94782+Q8TAF3). Briefly: Inhibition of USP1-UAF1 complex (unknown origin) using Ub-7-amido-4-methylcoumarin as substrate at 10 uM incubated for 2 hrs by fluorescence based analysis relative to control. Type of assay: protein-complex assay.
Conditions: not given
Turning to `COc1ncnc(C2CC2)c1-c1ncc2ccc(=O)n(Cc3ccc(-c4nc(C(F)(F)F)cn4C(C)C)c(C)c3)c2n1`, the inhibition was determined as 77.9%.

For `COc1ncnc(C2CC2)c1-c1ncc2ccc(=O)n(Cc3ccc(-n4cccc4)cc3)c2n1`, the inhibition stood at 71.6%.

With `COc1ncnc(C2CC2)c1-c1ncc2ccc(=O)n(Cc3ccc(-n4ccnc4)cc3)c2n1`, the inhibition came out at 56.9%.

Consider `COc1ncccc1-c1ncc2ccc(=O)n(Cc3ccc(-c4nc(C(F)(F)F)cn4C(C)C)cc3)c2n1`, for which the inhibition came to 63.9%.

Molecule `COc1ncnc(C2CC2)c1-c1ncc2ccc(=O)n(Cc3ccc(-n4ccnn4)cc3)c2n1` came in with an inhibition of 54.6%.

`CC(C)n1cc(C(F)(F)F)nc1-c1ccc(Cn2c(=O)ccc3cnc(-c4ccnn4C(C)C)nc32)cc1`: the inhibition amounted to 56.6%.

A further assay relates to NCI-H1299. As to the kind of experiment: Inhibition of colony formation in human NCI-H1299 cells at 0.5 uM measured after 7 days by SRB staining based assay relative to control. The class given is functional. The following applies: NCI-H1299, 168 h, time 7 day.
Regarding `COc1cccc(OC)c1-c1ncc2ccc(=O)n(Cc3ccc(-c4nc(C(F)(F)F)cn4C(C)C)cc3)c2n1`, the inhibition at 0.5 µM worked out at 70%.

For `COc1ncnc(C2CC2)c1-c1ncc2ccc(=O)n(Cc3ccc(-n4nc(C(F)(F)F)cc4C)cc3)c2n1`, the inhibition at 0.5 µM was found to be 70%.

For a further assay, the system named is MDA-MB-436. Briefly: Induction of cell cycle arrest in human MDA-MB-436 cells assessed as increase in cells at S phase at 1 uM incubated for 24 hrs by PI staining based flow cytometry analysis. Type of assay: functional.
Conditions: not given
On the technique in general: Flow cytometry measures light scatter and fluorescence of single cells or particles in a stream.
As to `COc1ncnc(C2CC2)c1-c1ncc2cnn(Cc3ccc(-c4nc(C(F)(F)F)cn4C(C)C)cc3)c2n1`, the result was Active.

`COc1cccc(OC)c1-c1ncc2ccc(=O)n(Cc3ccc(-c4nc(C(F)(F)F)cn4C(C)C)cc3)c2n1`: the result was Active.

For `COc1ncnc(C2CC2)c1-c1ncc2ccc(=O)n(Cc3ccc(-n4nc(C(F)(F)F)cc4C)cc3)c2n1`, the outcome was Active.

The subject of a further assay is Olaparib-resistant MDA-MB-436. As to the kind of experiment: Inhibition of colony formation in human Olaparib-resistant MDA-MB-436 cell assessed as cell killing at 100 nM measured after 7 days by SRB staining based assay. Type of assay: functional. As to conditions: time 7.0 day.
For `O=C(c1cc(Cc2n[nH]c(=O)c3ccccc23)ccc1F)N1CCN(C(=O)C2CC2)CC1`, the inhibition entry was “inactive”.

The target in a further assay is T1, Ubiquitin carboxyl-terminal hydrolase 1/WD repeat-containing protein 48 (Homo sapiens). The following applies: NCI-H1299, dose 20-500 nM, time 24.0 hrs.
Regarding `COc1cccc(OC)c1-c1ncc2ccc(=O)n(Cc3ccc(-c4nc(C(F)(F)F)cn4C(C)C)cc3)c2n1`, the inhibition result is “Dose-Dependent Effect”.

Regarding `COc1ncnc(C2CC2)c1-c1ncc2ccc(=O)n(Cc3ccc(-n4nc(C(F)(F)F)cc4C)cc3)c2n1`, the inhibition entry is “Dose-Dependent Effect”.
